Source: ChEMBL document CHEMBL1921686, “Molecular design, synthesis and bioactivity of glycosyl hydrazine and hydrazone derivatives: notable effects of the sugar moiety” (2011)

Assays:
Type in all cases: functional
Settings in all cases: read-out: GI
[1] = test system: KB; test: Antitumor activity against human KB cells assessed as growth inhibition at 10 uM by SRB method
[2] = test system: BGC-823; test: Antitumor activity against human BGC823 cells assessed as growth inhibition at 10 uM by SRB method
[3] = test system: Corynespora cassiicola; test: Antifungal activity against Corynespora cassiicola assessed as growth inhibition at 500 ug/mL by potted plant test
[4] = test system: Rhizoctonia solani; test: Antifungal activity against Rhizoctonia solani assessed as growth inhibition at 500 ug/mL by potted plant test
[5] = test system: Fusarium oxysporum; test: Antifungal activity against Fusarium oxysporum assessed as growth inhibition at 500 ug/mL by potted plant test
[6] = test system: Phytophthora capsici; test: Antifungal activity against Phytophthora capsici assessed as growth inhibition at 500 ug/mL by potted plant test
[7] = test system: Bel-7402; test: Antitumor activity against human Bel7402 cells assessed as growth inhibition at 10 uM by SRB method

Row | Structure (SMILES) | inhibition of growth at 10 µM [1] | inhibition of growth at 10 µM [2] | inhibition of growth at 500 µg/mL [3] | inhibition of growth at 500 µg/mL [4] | inhibition of growth at 500 µg/mL [5] | inhibition of growth at 500 µg/mL [6] | inhibition of growth at 10 µM [7]
1 | COc1ccccc1C(=O)N/N=C/c1ccc(-c2ccc(F)cc2F)o1 | 10.1% | 35.9% | 38.5% | 2% | 9% | 20.9% | 1.69%
2 | O=C(N/N=C/c1ccc(-c2ccc(F)cc2F)o1)c1ccccc1O | 61.8% | 68.4% | 27.7% | 16.1% | 8% | 52.8% | 63.4%
3 | O=C(N/N=C/c1ccc(-c2ccc(F)cc2F)o1)c1ccccc1S[C@@H]1O[C@H](CO)[C@@H](O)[C@H](O)[C@H]1O | -0.3% | 18.4% | 53.7% | 45.5% | 45.2% | 88.5% | -0.67%
4 | O=C(N/N=C/c1ccc(-c2ccc(F)cc2F)o1)c1ccccc1O[C@@H]1O[C@H](CO)[C@@H](O)[C@H](O)[C@H]1O | 18.2% | 6.66% | 50.8% | 45.3% | 0% | 85.5% | -5.7%
5 | O=C(N/N=C/c1ccc(-c2ccc(F)cc2F)o1)c1ccccc1S[C@@H]1O[C@H](CO)[C@H](O)[C@H](O)[C@H]1O | 10.7% | 16.1% | 39.4% | 24.9% | 64.5% | 88.4% | 27.2%
6 | O=C(N/N=C/c1ccc(-c2ccccc2Cl)o1)c1ccccc1S[C@@H]1O[C@H](CO)[C@@H](O)[C@H](O)[C@H]1O | 24.3% | 6.21% | 41.9% | 34.4% | 8.06% | 90% | 2.09%
7 | O=C(N/N=C/c1ccc(-c2ccccc2Cl)o1)c1ccccc1O[C@@H]1O[C@H](CO)[C@@H](O)[C@H](O)[C@H]1O | 9.11% | 1.88% | 49.3% | 33.3% | 64.5% | 90% | -10.3%
8 | O=C(N/N=C/c1ccc(-c2ccc(F)cc2F)o1)c1ccccc1S[C@@H]1O[C@H](CO)[C@@H](O[C@@H]2O[C@H](CO)[C@H](O)[C@H](O)[C@H]2O)[C@H](O)[C@H]1O | 39.4% | -2.72% | 45.6% | 10.7% | 74.2% | 30% | -10.6%
9 | O=C(N/N=C/c1ccc(-c2ccccc2Cl)o1)c1ccccc1S[C@@H]1O[C@H](CO)[C@@H](O[C@@H]2O[C@H](CO)[C@H](O)[C@H](O)[C@H]2O)[C@H](O)[C@H]1O | -4.67% | 1.91% | 41.6% | 43.5% | 40.3% | 44.4% | 8.3%
10 | N#Cc1c(Cl)c(Cl)c(Cl)c(C#N)c1Cl [CHLOROTHALONIL] | – | – | 83.9% | – | – | – | –
11 | COc1cccc2c1C(=O)c1c(O)c3c(c(O)c1C2=O)C[C@@](O)(C(=O)CO)C[C@@H]3O[C@H]1C[C@H](N)[C@H](O)[C@H](C)O1 [DOXORUBICIN] | 45.1% | 51.2% | – | – | – | – | 6.53%
12 | CC12CC1(C)C(=O)N(c1cc(Cl)cc(Cl)c1)C2=O (stereo not given) [PROCYMIDONE] | – | – | – | – | – | 93.2% | –
13 | COC(=O)NC(=S)Nc1ccccc1NC(=S)NC(=O)OC [THIOPHANATE METHYL] | – | – | – | – | 64.5% | – | –
14 | OCC1=C[C@H](N[C@H]2C[C@H](CO)[C@@H](O[C@@H]3O[C@H](CO)[C@@H](O)[C@H](O)[C@H]3O)[C@H](O)[C@H]2O)[C@H](O)[C@@H](O)[C@@H]1O [VALIDAMYCIN] | – | – | – | 81% | – | – | –
